Data from patent publication US8022038B2, “Composition for acceleration of type I collagen production” (Fancl Corporation, priority 2005, dated 2011).
Non-standard residues stand in square brackets, D forms with d. No end group written: not given here. Hyp = O=C(O)[C@@H]1C[C@@H](O)CN1

System: three-dimensional human skin model (type I collagen production)
Assay: Type I collagen production in three-dimensional human skin model (TESTSKIN LSE-high), Western blotting with imaging analysis
Assay type: cell-based
Experimental: Three-dimensional human skin models are widely used in safety evaluation and effectiveness evaluation as a simulated model of human skin. In this test, TESTSKIN (LSE-high) (Toyobo Co., Ltd.) was used as a three-dimensional human skin model.
A culture medium was added to the outer well of TESTSKIN (LSE-high) and cultured for 24 hours. Thereafter, the culture solution was changed and each agent was added by 100 μl onto the tissues in the assay ring, after which the medium was cultured for 36 hours. Thereafter, the tissues were collected and a tissue extraction solution (50 mM Tris-HCl (pH 7.5), 0.5% (Octylphenoxy) polyethoxyethanol (Sigma-Aldrich Corp.)) was added, and then the mixture was homogenized using a homogenizer made of fluorocarbon resin. The homogenized mixture was centrifuged for 30 minutes at 10,000×G to remove tissue fragments, and then dialyzed overnight in distilled water at 4° C. Thereafter, the dialyzed mixture was freeze-dried to remove water. A tissue extraction solution was added to obtain a x20 concentrate, and this concentrate was used in Western blotting as a three-dimensional skin model extract sample.
Using a three-dimensional human skin model extract sample, 10 μg of protein was applied per lane, after which the sample was separated via SDS-PAGE and the result was transferred onto nitrocellulose membranes. The transferred nitrocellulose membranes were soaked in a blocking solution (solution prepared by dissolving skim milk in a PBS containing 0.1% polyoxyethylene (20) sorbitan monolaurate to achieve a concentration of 5%) and blocked for one whole day at 4° C. The blocked membranes were washed with a washing solution (PBS containing 0.1% polyoxyethylene (20) sorbitan monolaurate) and then soaked in a primary antibody (polyclonal antibody of type I collagen (Rockland Inc.) adjusted to 500 ng/ml using a washing solution) to cause reaction for 1 hour at room temperature. The reacted membranes were washed and then soaked in a secondary antibody (horseradish peroxidase labeled anti-rabbit immunoglobulin G adjusted to 250 ng/ml using a washing solution) to cause reaction for 1 hour at room temperature. The reacted membranes were washed and then detection was performed using an ECL plus Western blotting detection reagent (Amersham Biosciences Inc.). The detected band was also scanned into an image scanner (Amersham Biosciences Inc.) and analyzed using image master software (Amersham Biosciences Inc.) for conversion to numerical values.

[1] = 10 μM, 36 h treatment, Example 1, FIGS. 1 and 2
[2] = 10 μM alone, Example 3, FIGS. 9 and 10
[3] = 10 μM, Example 3, FIGS. 7 and 8
[4] = 30 μM, Example 3, FIGS. 7 and 8

Molecule | type I collagen production compared to the level in the untreated control [1] | type I collagen production compared to the level in the untreated control [2] | type I collagen production compared to the level in the untreated control [3] | type I collagen production compared to the level in the untreated control [4] | also measured
COc1cc([C@@H]2[C@H]3CO[C@@]4(O)C(=O)[C@@H]2C=C([C@H]2Oc5cc(O)cc(O)c5C(=O)[C@@H]2O)[C@@H]34)ccc1O [silydianin] | 0.9 times |  |  |  | 
COc1cc([C@@H]2Oc3c(O)cc([C@H]4Oc5cc(O)cc(O)c5C(=O)[C@@H]4O)cc3[C@H]2CO)ccc1O [silychristin] | 0.95 times |  |  |  | 
Gly-Glu-Pro-Arg (GEPR) [peptide derived from an immunoglobulin G decomposition product, synthesized] |  | 2.10 times | 2.15 times | 3.55 times | 
Gly-His-Lys |  | 1.75 times | 1.75 times | 2.70 times | 
Lys-Thr-Thr-Lys-Ser (KTTKS) [pentapeptide derived from an α1 collagen decomposition product, synthesized] |  | 1.80 times | 1.80 times | 2.45 times | 
Gly-Pro-[Hyp] |  |  |  |  | type I collagen production compared to the level in the untreated control (5 μM, Example 2, FIGS. 3 and 4): 1.05 times; type I collagen production compared to the level in the untreated control (10 μM, Example 2, FIGS. 3 and 4): 1.15 times; type I collagen production compared to the level in the untreated control (30 μM used alone, Example 2, FIGS. 5 and 6): 1.25 times; type I collagen production compared to the level in the untreated control (30 μM, Example 2, FIGS. 3 and 4): 1.25 times
COc1cc(C2Oc3cc([C@H]4Oc5cc(O)cc(O)c5C(=O)[C@@H]4O)ccc3OC2CO)ccc1O (stereo partly drawn) [silybin] | 3.2 times |  |  |  | type I collagen production compared to the level in the untreated control (5 μM alone, Example 3, FIGS. 9 and 10): 1.95 times; type I collagen production compared to the level in the untreated control (5 μM used alone, Example 2, FIGS. 5 and 6): 1.85 times
